The source made the active and inactive calls. No cut-off for these calls is given here.
Assays:
HCT-116 = test: Cytotoxicity against human HCT-116 cells assessed as reduction in cell viability incubated for 48 hrs by MTT assay; format: functional, cell-based; conditions: HCT-116, 48 h
A549 [1] = test: Induction of cell cycle arrest in human A549 cells assessed as downregulation of Rb phosphorylation at Ser807/811 residue at 20 uM incubated for 24 hrs by Western blotting analysis; format: functional, cell-based
A549 [2] = test: Induction of cell cycle arrest in human A549 cells assessed as accumulation of cells at G2/M phase at 10 uM incubated for 24 hrs by flow cytometric analysis (reference value: 17.2 %); format: functional
A549 [3] = test: Antiproliferative activity against human A549 cells assessed as inhibition of cell growth incubated for 18 hrs by Edu incorporation based fluorescence microscopic analysis; format: functional
A549 [4] = test: Induction of cell cycle arrest in human A549 cells assessed as accumulation of cells at G2/M phase at 20 uM incubated for 24 hrs by flow cytometric analysis (reference value: 17.2 %); format: functional
A549 [5] = test: Induction of cell cycle arrest in human A549 cells assessed as accumulation of cells at G1/G0 phase at 10 uM incubated for 24 hrs by flow cytometric analysis (reference value: 51.49 %); format: functional
SNB-19 = test: Cytotoxicity against human SNB-19 cells assessed as reduction in cell viability incubated for 48 hrs by MTT assay; format: functional, cell-based; conditions: SNB-19, 48 h
NCI-H1703 [6] = test: Inhibition of colony formation in human NCI-H1703 cells at 2.5 uM incubated for 7 days by crystal violet staining analysis; format: functional, cell-based; conditions: time 7.0 day
MDA-MB-435 = test: Cytotoxicity against human MDA-MB-435 cells assessed as reduction in cell viability incubated for 48 hrs by MTT assay; format: functional, cell-based; conditions: MDA-MB-435, 48 h
A549 [7] = test: Induction of cell cycle arrest in human A549 cells assessed as downregulation of CDK6 protein expression incubated for 24 hrs by Western blotting analysis; format: functional, cell-based
NCI-H1703 [8] = test: Induction of cell cycle arrest in human NCI-H1703 cells assessed as downregulation of Rb phosphorylation at Ser807/811 residue at 10 uM incubated for 24 hrs by Western blotting analysis; format: functional, cell-based
NCI-H1703 [9] = test: Antiproliferative activity against human NCI-H1703 cells assessed as inhibition of cell growth at 10 uM incubated for 24 hrs by MTT assay; format: functional, cell-based
NCI-H1703 [10] = test: Induction of cell cycle arrest in human NCI-H1703 cells assessed as upregulation of p21 protein expression incubated for 24 hrs by Western blotting analysis; format: functional, cell-based
NCI-H1703 [11] = test: Induction of cell cycle arrest in human NCI-H1703 cells assessed as accumulation of cells at G2/M phase at 5 uM incubated for 24 hrs by flow cytometric analysis (reference value: 29.88 %); format: functional
Hepa 1-6 = test: Cytotoxicity against mouse Hepa1-6 cells assessed as reduction in cell viability incubated for 48 hrs by MTT assay; format: functional, cell-based; conditions: Hepa1-6, 48 h
A549 [12] = test: Induction of cell cycle arrest in human A549 cells assessed as upregulation of p21 protein expression incubated for 24 hrs by Western blotting analysis; format: functional, cell-based
A549 [13] = test: Induction of cell cycle arrest in human A549 cells assessed as downregulation of CyclinD1 protein expression incubated for 24 hrs by Western blotting analysis; format: functional, cell-based
A549 [14] = test: Induction of cell cycle arrest in human A549 cells assessed as accumulation of cells at S phase at 10 uM incubated for 24 hrs by flow cytometric analysis (reference value: 31.31 %); format: functional
NCI-H1703 [15] = test: Induction of cell cycle arrest in human NCI-H1703 cells assessed as downregulation of CDK4 protein expression incubated for 24 hrs by Western blotting analysis; format: functional, cell-based
A549 [16] = test: Induction of cell cycle arrest in human A549 cells assessed as upregulation of p53 protein expression incubated for 24 hrs by Western blotting analysis; format: functional, cell-based
MDA-MB-231 = test: Cytotoxicity against human MDA-MB-231 cells assessed as reduction in cell viability incubated for 48 hrs by MTT assay; format: functional, cell-based; conditions: MDA-MB-231, 48 h
NCI-H1703 [17] = test: Induction of cell cycle arrest in human NCI-H1703 cells assessed as upregulation of p53 protein expression incubated for 24 hrs by Western blotting analysis; format: functional, cell-based
B16-F10 = test: Cytotoxicity against mouse B16-F10 cells assessed as reduction in cell viability incubated for 48 hrs by MTT assay; format: functional, cell-based; conditions: B16-F10, 48 h
A549 [18] = test: Induction of cell cycle arrest in human A549 cells assessed as accumulation of cells at S phase at 20 uM incubated for 24 hrs by flow cytometric analysis (reference value: 31.31 %); format: functional
A549 [19] = test: Induction of cell cycle arrest in human A549 cells assessed as accumulation of cells at G1/G0 phase at 20 uM incubated for 24 hrs by flow cytometric analysis (reference value: 51.49 %); format: functional
A549 [20] = test: Induction of cell cycle arrest in human A549 cells assessed as downregulation of total Rb protein level at 20 uM incubated for 24 hrs by Western blotting analysis; format: functional, cell-based
NCI-H1703 [21] = test: Cytotoxicity against human NCI-H1703 cells assessed as reduction in cell viability incubated for 48 hrs by MTT assay; format: functional, cell-based; conditions: NCI-H1703, 48 h
NCI-H1703 [22] = test: Induction of cell cycle arrest in human NCI-H1703 cells assessed as accumulation of cells at S phase at 10 uM incubated for 24 hrs by flow cytometric analysis (reference value: 28.06 %); format: functional
NCI-H1703 [23] = test: Induction of cell cycle arrest in human NCI-H1703 cells assessed as accumulation of cells at G2/M phase at 10 uM incubated for 24 hrs by flow cytometric analysis (reference value: 29.88 %); format: functional
A549 [24] = test: Induction of cell cycle arrest in human A549 cells assessed as downregulation of CDK4 protein expression incubated for 24 hrs by Western blotting analysis; format: functional, cell-based
A549 [25] = test: Inhibition of colony formation in human A549 cells at 10 uM incubated for 7 days by crystal violet staining analysis; format: functional, cell-based; conditions: time 7.0 day
NCI-H1703 [26] = test: Inhibition of colony formation in human NCI-H1703 cells at 5 uM incubated for 7 days by crystal violet staining analysis; format: functional, cell-based; conditions: time 7.0 day
MC-38 = test: Cytotoxicity against mouse MC38 cells assessed as reduction in cell viability incubated for 48 hrs by MTT assay; format: functional, cell-based; conditions: MC-38, 48 h
PC-3 = test: Cytotoxicity against human PC-3 cells assessed as reduction in cell viability incubated for 48 hrs by MTT assay; format: functional, cell-based; conditions: PC-3, 48 h
NCI-H1703 [27] = test: Induction of cell cycle arrest in human NCI-H1703 cells assessed as downregulation of CyclinD1 protein expression incubated for 24 hrs by Western blotting analysis; format: functional, cell-based
NCI-H1703 [28] = test: Induction of cell cycle arrest in human NCI-H1703 cells assessed as downregulation of total Rb protein level at 10 uM incubated for 24 hrs by Western blotting analysis; format: functional, cell-based
A549 [29] = test: Induction of cell cycle arrest in human A549 cells assessed as downregulation of Rb phosphorylation at Ser807/811 residue at 10 uM incubated for 24 hrs by Western blotting analysis; format: functional, cell-based
NCI-H1703 [30] = test: Antiproliferative activity against human NCI-H1703 cells assessed as inhibition of cell growth incubated for 18 hrs by Edu incorporation based fluorescence microscopic analysis; format: functional
4T1 = test: Cytotoxicity against mouse 4T1 cells assessed as reduction in cell viability incubated for 48 hrs by MTT assay; format: functional, cell-based; conditions: 4T1, 48 h

C/C=C/[C@@H]1[C@H]2C[C@@H](C)CC[C@@H]2C(C)=C[C@H]1C(=O)c1c(O)c(-c2ccc(O)cc2)c[nH]c1=O [ILICICOLIN H]
IC50 (HCT-116): 10.8 µM | Activity (A549 [1]): Active | Activity (A549 [2]): 24% | Activity (A549 [3]): Dose-Dependent Effect | Activity (A549 [4]): 12.93% | Activity (A549 [5]): 64.26% | IC50 (SNB-19): 14.6 µM | inhibition (NCI-H1703 [6]): Active | IC50 (MDA-MB-435): 6.34 µM | Activity (A549 [7]): Dose-Dependent Effect | Activity (NCI-H1703 [8]): Active | Activity (NCI-H1703 [9]): Active | Activity (NCI-H1703 [10]): Dose-Dependent Effect | Activity (NCI-H1703 [11]): 26.61% | IC50 (Hepa 1-6): 19.6 µM | Activity (A549 [12]): Dose-Dependent Effect | Activity (A549 [13]): Dose-Dependent Effect | Activity (A549 [14]): 10.84% | Activity (NCI-H1703 [15]): Dose-Dependent Effect | Activity (A549 [16]): Dose-Dependent Effect | IC50 (MDA-MB-231): 9.98 µM | Activity (NCI-H1703 [17]): Dose-Dependent Effect | IC50 (B16-F10): 21.6 µM | Activity (A549 [18]): 14.95% | Activity (A549 [19]): 72.12% | Activity (A549 [20]): inactive | IC50 (NCI-H1703 [21]): 6.65 µM | Activity (NCI-H1703 [22]): 24.49% | Activity (NCI-H1703 [23]): 19.48% | Activity (A549 [24]): Dose-Dependent Effect | inhibition (A549 [25]): Active | inhibition (NCI-H1703 [26]): Active | IC50 (MC-38): 19.6 µM | IC50 (PC-3): > 50 µM | Activity (NCI-H1703 [27]): Dose-Dependent Effect | Activity (NCI-H1703 [28]): inactive | Activity (A549 [29]): Active | Activity (NCI-H1703 [30]): Dose-Dependent Effect | IC50 (4T1): 13.8 µM

From ChEMBL document CHEMBL5500339, “4-Hydroxy-2-pyridone derivatives with antitumor activity produced by mangrove endophytic fungus Talaromyces sp. CY-3” (Eur J Med Chem, 2024)
